What is called inhibition is the relative decrease from the control value, in per cent. For orientation: IC50 means the midpoint of a concentration-inhibition curve. The low end stands for greater potency in that assay, the high end for weaker potency in that assay.

Data set [1] has as its target Fatty acid synthase (Rattus norvegicus) (UniProt P12785). In words: Inhibition of Sprague-Dawley rat liver fatty acid synthase at 60 umol.
The target of data set [2] is Fatty acid synthase (Rattus norvegicus, UniProt P12785). Briefly: Inhibition of Sprague-Dawley rat liver fatty acid synthase.
Fatty acid synthase, sequence (P12785 whole entry): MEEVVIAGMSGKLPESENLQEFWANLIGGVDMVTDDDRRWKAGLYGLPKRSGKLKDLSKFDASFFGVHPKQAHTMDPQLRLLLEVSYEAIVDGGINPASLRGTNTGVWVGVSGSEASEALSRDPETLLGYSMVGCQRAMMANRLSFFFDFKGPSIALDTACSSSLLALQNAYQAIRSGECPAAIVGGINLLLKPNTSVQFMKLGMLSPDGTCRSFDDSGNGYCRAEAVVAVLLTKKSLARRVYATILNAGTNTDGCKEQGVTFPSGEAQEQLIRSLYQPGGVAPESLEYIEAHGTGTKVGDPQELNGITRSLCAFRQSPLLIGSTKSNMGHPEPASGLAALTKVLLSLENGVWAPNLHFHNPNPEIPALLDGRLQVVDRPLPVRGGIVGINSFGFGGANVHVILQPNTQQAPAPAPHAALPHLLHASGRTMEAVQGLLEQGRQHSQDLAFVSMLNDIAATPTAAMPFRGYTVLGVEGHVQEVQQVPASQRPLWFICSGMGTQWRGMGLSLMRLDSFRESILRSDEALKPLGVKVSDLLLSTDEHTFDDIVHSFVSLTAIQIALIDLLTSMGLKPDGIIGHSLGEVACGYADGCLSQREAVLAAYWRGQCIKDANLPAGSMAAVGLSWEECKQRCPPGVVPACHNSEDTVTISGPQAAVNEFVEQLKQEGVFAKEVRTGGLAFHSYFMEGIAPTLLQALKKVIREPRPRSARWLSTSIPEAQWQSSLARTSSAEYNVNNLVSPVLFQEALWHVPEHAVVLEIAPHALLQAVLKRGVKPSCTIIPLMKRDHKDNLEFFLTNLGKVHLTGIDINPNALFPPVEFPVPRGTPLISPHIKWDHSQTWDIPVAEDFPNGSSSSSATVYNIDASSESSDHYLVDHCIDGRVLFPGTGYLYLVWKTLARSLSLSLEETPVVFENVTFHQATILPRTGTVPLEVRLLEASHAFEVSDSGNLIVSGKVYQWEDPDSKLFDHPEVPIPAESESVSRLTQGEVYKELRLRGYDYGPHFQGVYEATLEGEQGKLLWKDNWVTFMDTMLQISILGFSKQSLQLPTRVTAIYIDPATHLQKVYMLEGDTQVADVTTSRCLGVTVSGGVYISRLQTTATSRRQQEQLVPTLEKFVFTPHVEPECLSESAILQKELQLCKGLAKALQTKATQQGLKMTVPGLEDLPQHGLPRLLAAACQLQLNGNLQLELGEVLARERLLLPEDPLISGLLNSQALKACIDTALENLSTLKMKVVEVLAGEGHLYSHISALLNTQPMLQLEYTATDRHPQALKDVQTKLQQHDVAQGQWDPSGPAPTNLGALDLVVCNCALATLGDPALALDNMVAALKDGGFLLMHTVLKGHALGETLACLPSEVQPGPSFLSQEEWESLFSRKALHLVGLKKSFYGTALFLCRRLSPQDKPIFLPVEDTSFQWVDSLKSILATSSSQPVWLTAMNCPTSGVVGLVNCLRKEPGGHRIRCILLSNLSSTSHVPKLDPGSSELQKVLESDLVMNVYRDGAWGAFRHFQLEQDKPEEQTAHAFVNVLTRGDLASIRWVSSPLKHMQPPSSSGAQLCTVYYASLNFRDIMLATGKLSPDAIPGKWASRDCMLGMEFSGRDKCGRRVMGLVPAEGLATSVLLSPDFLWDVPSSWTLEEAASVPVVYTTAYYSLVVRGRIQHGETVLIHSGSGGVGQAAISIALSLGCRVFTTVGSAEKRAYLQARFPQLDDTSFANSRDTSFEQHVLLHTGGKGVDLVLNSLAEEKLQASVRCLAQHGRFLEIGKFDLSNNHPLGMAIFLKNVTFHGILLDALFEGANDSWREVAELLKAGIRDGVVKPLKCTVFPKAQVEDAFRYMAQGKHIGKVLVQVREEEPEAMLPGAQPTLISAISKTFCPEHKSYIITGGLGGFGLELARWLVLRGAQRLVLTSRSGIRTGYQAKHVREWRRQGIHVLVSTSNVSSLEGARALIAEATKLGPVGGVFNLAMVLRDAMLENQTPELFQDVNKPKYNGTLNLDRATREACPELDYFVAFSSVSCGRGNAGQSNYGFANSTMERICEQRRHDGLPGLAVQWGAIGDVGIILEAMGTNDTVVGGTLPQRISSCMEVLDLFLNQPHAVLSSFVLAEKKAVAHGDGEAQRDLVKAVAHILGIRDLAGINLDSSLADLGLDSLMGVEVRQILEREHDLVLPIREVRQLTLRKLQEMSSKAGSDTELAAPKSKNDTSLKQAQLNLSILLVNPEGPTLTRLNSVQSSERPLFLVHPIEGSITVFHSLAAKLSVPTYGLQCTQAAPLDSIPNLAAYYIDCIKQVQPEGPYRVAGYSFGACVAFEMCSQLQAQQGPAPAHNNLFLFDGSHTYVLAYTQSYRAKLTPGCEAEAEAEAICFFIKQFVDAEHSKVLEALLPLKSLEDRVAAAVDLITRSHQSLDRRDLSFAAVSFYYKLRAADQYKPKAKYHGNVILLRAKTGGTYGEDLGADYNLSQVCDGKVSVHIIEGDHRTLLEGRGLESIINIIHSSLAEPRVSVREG
Data set [3] is described as follows: Cytotoxicity against HLF by MTT assay. To be noted: human, HLF cells; read-out: TC50 (the source's name).
The test system of data set [4] is fatty acid synthase. Briefly: Therapeutic index, ratio of TC50 for HLF to IC50 for Sprague-Dawley rat liver fatty acid synthase. To be noted: human (HLF cells), HLF cells versus rat liver fatty acid synthase.

Where only a bound is given, the exact number is not on record here.

Fatty acid synthase (Rattus norvegicus), sequence (P12785 whole entry): as above

In turn, `CCCCCCCCCCC[C@H]1SC(=O)c2ccccc2[C@@H]1C(=O)O` (relative stereo) gave an inhibition in data set [1] of 95.7%. On Fatty acid synthase [2], this compound came in with an IC50 of 3.62 µM. For the same compound, in data set [3], the CC50 was found to be 9.67 µM. The selectivity ratio in the data set on fatty acid synthase [4] stood at 2.67.

In data set [1], `CCCCCCCC[C@H]1SC(=O)c2ccccc2[C@@H]1C(=O)O` (relative stereo) displayed an inhibition of 50.9%. The same compound gave a half-inhibitory concentration (IC50) on Fatty acid synthase [2] of 12.3 µM. For the same compound, the CC50 in data set [3] was determined as 84.2 µM. Moreover, the selectivity ratio in the data set with fatty acid synthase [4] was determined as 6.83.

Consider `CCCCCCCCCC1SC(=O)c2ccccc2[C@@H]1C(=O)O` (stereo not given in full), for which the inhibition in data set [1] is 77.5%. The IC50 at Fatty acid synthase [2] was determined as 8.29 µM. In addition, the CC50 in data set [3] was determined as 88.6 µM. The selectivity ratio with fatty acid synthase [4] came out at 10.7.

In the case of `CCCCCC[C@H]1SC(=O)c2ccccc2[C@@H]1C(=O)O` (relative stereo), the inhibition in data set [1] was found to be 40.4%. The compound further returned an IC50 on Fatty acid synthase [2] of 36.7 µM. In addition, the CC50 in data set [3] is over 200 µM.

On Fatty acid synthase [2], `C=C1C(=O)O[C@H](CCCCCCCC)[C@H]1C(=O)O` (relative stereo) displayed an IC50 of 15.5 µM. The CC50 in data set [3] amounted to 87.1 µM. In the data set on fatty acid synthase [4], the selectivity ratio was determined as 5.61.

`CCCCCCC[C@H]1SC(=O)c2ccccc2[C@@H]1C(=O)O` (relative stereo) had an inhibition in data set [1] of 43.1%. This compound displayed an IC50 at Fatty acid synthase [2] of 26.9 µM. Further, the CC50 in data set [3] is over 200 µM.

As for `CCCCCCCCCC[C@H]1SC(=O)c2ccccc2[C@@H]1C(=O)O` (relative stereo), in data set [1], the inhibition is 90.2%. The same compound yielded an IC50 against Fatty acid synthase [2] of 4.11 µM. Besides, in data set [3], the CC50 amounted to 12 µM. Besides, the selectivity ratio in the data set on fatty acid synthase [4] came to 2.92.

For the origin of these results see ChEMBL document CHEMBL1143262, “1-Oxo-3-substitute-isothiochroman-4-carboxylic acid compounds: synthesis and biological activities of FAS inhibition” (Bioorg Med Chem Lett, 2009).
